Experimental data published in BindingDB's records for patent US11957687 (Regeneron Pharmaceuticals, 2024).

Molecular target: T1, 17-beta-hydroxysteroid dehydrogenase 13 (Homo sapiens, UniProt Q7Z5P4)
T1 sequence (Q7Z5P4 whole entry): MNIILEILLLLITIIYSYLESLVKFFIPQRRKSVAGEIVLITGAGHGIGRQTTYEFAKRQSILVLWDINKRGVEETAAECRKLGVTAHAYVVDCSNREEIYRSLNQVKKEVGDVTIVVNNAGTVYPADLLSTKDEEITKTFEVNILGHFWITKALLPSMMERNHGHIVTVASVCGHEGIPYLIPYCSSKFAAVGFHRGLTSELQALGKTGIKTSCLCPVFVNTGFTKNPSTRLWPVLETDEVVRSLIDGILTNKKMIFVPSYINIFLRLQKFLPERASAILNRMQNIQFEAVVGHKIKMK
Test: HSD17B13 Enzymatic Blocking Assay (50nM)
Method: Compounds of the disclosure were screened for their ability to block HSD17B13 function using an enzymatic blocking assay. HSD17B13 activity was quantified using a NADH Glo luminescence assay (Promega, #Cat. No. G9062) to measure the formation of NADH from the oxidation of LTB4, a known HSD17B13 substrate. Compounds were over a 10-point dose curve using an Echo-555 liquid handling dispenser. HSD17B13 (SEQ ID NO: 1, expressed in E. coli) was added at […] a final concentration of 50 nM, depending on the assay run, in a buffer containing 0.2M Tris-HCl pH 7.5 containing 0.01% Triton-X into a low volume white 384-well assay plate. Compounds were incubated with the enzyme for 30 minutes at room temperature. The assay reaction was then initiated by addition of 10 μM LTB4 substrate (Cayman chemicals, Cat. No. 20110) and 500 μM NAD, and the reaction mixture was incubated for 1 or 2 hours at room temperature depending on the assay run. DMSO at a concentration of 0.5% was used as a negative control, and a ‘no substrate’ control was used as a positive control (100% inhibition) in the assay. […] Generation of NADH was detected in the luminescence mode on the Envision Perkin Elmer plate reader. The IC50 values were determined using Dotmatics analysis software.

CCCC1Cc2ccc(C)cc2C1NC(=O)c1ccc(C(F)(F)F)[nH]c1=O (configuration not stated) [US11957687, Compound 291]
IC50: 0.08 µM

CC(C)(C)OC(=O)NCCc1cccc2c1CCCC2NC(=O)c1ccc(C(F)(F)F)[nH]c1=O (configuration not stated) [US11957687, Compound 301]
IC50: 3.45 µM
